What was measured:
Assay in all cases: fitness (endpoint OD595 vs no drug) (fraction); higher = more growth
S. aureus Newman = tested on: S. aureus Newman
Summary of the method: (§1)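 Each well of a 384-well plate received 30 µl of culture at OD595 0.01, or 55 µl for S. pneumoniae. TSB, LB Lennox or CY served as media at 37 °C. OD595 was taken every 30 min for 14 h and corrected by subtracting the first reading. Fitness is the optical density at stationary-phase entry divided by the robust mean of no-drug controls, capped at 1.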

B. subtilis 168 = tested on: B. subtilis 168
Summary of the method: as §1

S. pneumoniae D39V = tested on: S. pneumoniae D39V
Summary of the method: as §1

CC1=C(C(=O)O)N2C(=O)[C@@H](NC(=O)[C@H](N)c3ccccc3)[C@H]2SC1 [Cephalexin] + CC1(C)S[C@@H]2[C@H](NC(=O)Cc3ccccc3)C(=O)N2[C@H]1C(=O)O [Penicillin G]
fitness, S. aureus Newman
Settings	first compound 0.25 µg/mL	first compound 0.5 µg/mL	first compound 1 µg/mL
partner 0.0195 µg/mL	0.891	0.785	0.811
partner 0.039 µg/mL	0.927	0.937	0.908
partner 0.078 µg/mL	0.875	0.897	0.944

O=C(O)[C@H]1/C(=C/CO)O[C@@H]2CC(=O)N21 [Clavulanic acid] + C[C@H]1c2cccc(O)c2C(=O)C2=C(O)[C@]3(O)C(=O)C(C(N)=O)=C(O)[C@@H](N(C)C)[C@@H]3[C@@H](O)[C@@H]21 [Doxycycline]
Settings	fitness
B. subtilis 168, first compound 1.5 µg/mL, partner 0.02 µg/mL	0.862
B. subtilis 168, first compound 1.5 µg/mL, partner 0.04 µg/mL	0.762
B. subtilis 168, first compound 3 µg/mL, partner 0.02 µg/mL	0.852
B. subtilis 168, first compound 3 µg/mL, partner 0.04 µg/mL	0.721
B. subtilis 168, first compound 6 µg/mL, partner 0.02 µg/mL	0.728
B. subtilis 168, first compound 6 µg/mL, partner 0.04 µg/mL	0.628
B. subtilis 168, first compound 6 µg/mL, partner 0.08 µg/mL	0.375
S. pneumoniae D39V, first compound 0.5 µg/mL, partner 0.0155 µg/mL	0.929
S. pneumoniae D39V, first compound 1 µg/mL, partner 0.0155 µg/mL	0.892
S. pneumoniae D39V, first compound 1 µg/mL, partner 0.031 µg/mL	0.615
S. pneumoniae D39V, first compound 1 µg/mL, partner 0.062 µg/mL	0.429
S. pneumoniae D39V, first compound 2 µg/mL, partner 0.0155 µg/mL	0.73
S. pneumoniae D39V, first compound 2 µg/mL, partner 0.031 µg/mL	0.45
S. pneumoniae D39V, first compound 2 µg/mL, partner 0.062 µg/mL	0.281

fitness, S. pneumoniae D39V, one replicate
Settings	first compound 0.5 µg/mL	first compound 1 µg/mL	first compound 2 µg/mL
partner 0.003875 µg/mL	≥ 1	0.985	0.9
partner 0.00775 µg/mL	0.998	0.964	0.895

O=C(O)[C@H]1/C(=C/CO)O[C@@H]2CC(=O)N21 [Clavulanic acid] + CCCCCCCCCC(=O)N[C@@H]1[C@H]([C@@H]([C@H](O[C@H]1OC2=C3C=C4C=C2OC5=C(C=C(C=C5)[C@H]([C@H]6C(=O)N[C@@H](C7=C(C(=CC(=C7)O)OC8[C@H]([C@H]([C@@H]([C@H](O8)CO)O)O)O)C9=C(C=CC(=C9)[C@H](C(=O)N6)NC(=O)[C@@H]4NC(=O)[C@@H]1C2=CC(=CC(=C2)OC2=C(C=CC(=C2)[C@H](C(=O)N[C@H](CC2=CC(=C(O3)C=C2)Cl)C(=O)N1)N)O)O)O)C(=O)O)O[C@H]1[C@@H]([C@H]([C@@H]([C@H](O1)CO)O)O)NC(=O)C)Cl)CO)O)O [Teicoplanin]
fitness, S. aureus Newman, one replicate, main component drawn
Settings	first compound 0.03125 µg/mL	first compound 0.0625 µg/mL	first compound 0.125 µg/mL
partner 0.1562 µg/mL	0.992	0.966	0.916
partner 0.3125 µg/mL	0.924	≥ 1	0.894
partner 0.625 µg/mL	≥ 1	≥ 1	0.967

O=C(O)[C@H]1/C(=C/CO)O[C@@H]2CC(=O)N21 [Clavulanic acid] + C/C(=C\C(=O)OCCCCCCCCC(=O)O)C[C@@H]1OC[C@H](C[C@@H]2O[C@H]2[C@@H](C)[C@H](C)O)[C@@H](O)[C@H]1O [Pseudomonic acid]
fitness, S. pneumoniae D39V
Settings	first compound 0.5 µg/mL	first compound 1 µg/mL	first compound 2 µg/mL
partner 0.03 µg/mL	0.921	0.906	0.832
partner 0.06 µg/mL	0.769	0.803	0.656
partner 0.12 µg/mL	0.408	0.519	0.277

O=C(O)[C@H]1/C(=C/CO)O[C@@H]2CC(=O)N21 [Clavulanic acid] + CO[C@@H]1[C@@H](OC(N)=O)[C@@H](O)[C@H](Oc2ccc3c(O)c(NC(=O)c4ccc(O)c(CC=C(C)C)c4)c(=O)oc3c2C)OC1(C)C [Novobiocin]
fitness, B. subtilis 168
Settings	first compound 1.5 µg/mL	first compound 3 µg/mL	first compound 6 µg/mL
partner 0.0125 µg/mL	0.932	0.895	0.759
partner 0.025 µg/mL	0.935	0.89	0.727
partner 0.05 µg/mL	0.951	0.914	0.798

fitness, B. subtilis 168, one replicate
Settings	partner 0.1 µg/mL	partner 0.125 µg/mL	partner 0.2 µg/mL	partner 0.25 µg/mL	partner 0.5 µg/mL
first compound 1.5 µg/mL	0.893	0.827	0.975	0.841	0.511
first compound 3 µg/mL	0.937	0.815	0.989	0.774	0.385
first compound 6 µg/mL	0.827	0.775	0.796	0.726	0.209

Cc1onc(-c2ccccc2)c1C(=O)N[C@@H]1C(=O)N2[C@@H]1SC(C)(C)[C@@H]2C(=O)O [Oxacillin] + CC1(C)S[C@@H]2[C@H](NC(=O)Cc3ccccc3)C(=O)N2[C@H]1C(=O)O [Penicillin G]
fitness, S. aureus Newman
Settings	partner 0.0195 µg/mL	partner 0.039 µg/mL	partner 0.078 µg/mL
first compound 0.0156 µg/mL	0.768	0.748	0.727
first compound 0.0312 µg/mL	0.659	0.688	0.66

O=C(O)[C@H]1/C(=C/CO)O[C@@H]2CC(=O)N21 [Clavulanic acid] + CN(C)[C@@H]1C(O)=C(C(N)=O)C(=O)[C@@]2(O)C(O)=C3C(=O)c4c(O)ccc(Cl)c4[C@@](C)(O)[C@H]3C[C@@H]12 [Chlortetracycline]
fitness
Settings	partner 0.012 µg/mL	partner 0.024 µg/mL	partner 0.0475 µg/mL	partner 0.048 µg/mL	partner 0.095 µg/mL	partner 0.19 µg/mL	partner 0.375 µg/mL	partner 0.75 µg/mL	partner 1.5 µg/mL
B. subtilis 168, first compound 1.5 µg/mL	–	–	0.873	–	0.754	0.58	–	–	–
B. subtilis 168, first compound 3 µg/mL	–	–	0.838	–	0.708	0.512	–	–	–
B. subtilis 168, first compound 6 µg/mL	–	–	0.745	–	0.582	0.422	–	–	–
S. pneumoniae D39V, first compound 0.5 µg/mL	0.906	0.699	–	0.306	–	–	0.0436	0.0585	0.0458
S. pneumoniae D39V, first compound 1 µg/mL	0.821	0.686	–	0.366	–	–	0.0323	0.0545	0.0428
S. pneumoniae D39V, first compound 2 µg/mL	0.618	0.462	–	0.246	–	–	0.0402	0.0396	0.0545

O=C(O)[C@H]1/C(=C/CO)O[C@@H]2CC(=O)N21 [Clavulanic acid] + Clc1ccc(COC(Cn2ccnc2)c2ccc(Cl)cc2Cl)c(Cl)c1 [Miconazole]
fitness, S. pneumoniae D39V
Settings	partner 1.073 µg/mL	partner 1.25 µg/mL	partner 2.145 µg/mL	partner 2.5 µg/mL	partner 4.29 µg/mL	partner 5 µg/mL
first compound 0.5 µg/mL	≥ 1	0.956	0.973	0.981	0.924	0.94
first compound 1 µg/mL	≥ 1	0.876	0.923	0.873	0.883	0.838
first compound 2 µg/mL	0.898	0.715	0.787	0.66	0.754	0.653
